Reference: patent US20080269248A1, “Tartrate and Malate Salts of Trans-1-((1R,3S)-6-Chloro-3-Phenylindan-1-Yl)-3,3-Dimethylpiperazine” (H. Lundbeck A/S, priority 2005, published 2008)

What was measured:
solubility of the salts = assay type: physicochemical
[1] = tested on: pigs sensitized to haloperidol; experiment: dystonia in pigs sensitized to haloperidol; assay type: in vivo
[2] = target: dopamine (DA) D1 receptors (Homo sapiens, UniProt P21728); conditions: as described in PCT/DK04/000546; cited from earlier work
DA D2 receptors = DA D2 receptors (Homo sapiens, UniProt P14416); conditions: as described in PCT/DK04/000546; cited from earlier work
alfal adrenoceptors = conditions: as described in PCT/DK04/000546; cited from earlier work
dopamine D1 receptors = dopamine D1 receptors (Homo sapiens, UniProt P21728); conditions: as described in PCT/DK04/000546; cited from earlier work
dopamine D2 receptors = dopamine D2 receptors (Homo sapiens, UniProt P14416); conditions: as described in PCT/DK04/000546; cited from earlier work
[3] = target: serotonin 5-HT2a receptors (Homo sapiens, UniProt P28223); conditions: as described in PCT/DK04/000546; cited from earlier work
CYP2D6 = CYP2D6 (Homo sapiens, UniProt P10635); conditions: as described in PCT/DK04/000546; cited from earlier work
[4] = rabbit model; as described in PCT/DK04/000546; cited from earlier work

serotonin 5-HT2a receptors, sequence (P28223 whole entry): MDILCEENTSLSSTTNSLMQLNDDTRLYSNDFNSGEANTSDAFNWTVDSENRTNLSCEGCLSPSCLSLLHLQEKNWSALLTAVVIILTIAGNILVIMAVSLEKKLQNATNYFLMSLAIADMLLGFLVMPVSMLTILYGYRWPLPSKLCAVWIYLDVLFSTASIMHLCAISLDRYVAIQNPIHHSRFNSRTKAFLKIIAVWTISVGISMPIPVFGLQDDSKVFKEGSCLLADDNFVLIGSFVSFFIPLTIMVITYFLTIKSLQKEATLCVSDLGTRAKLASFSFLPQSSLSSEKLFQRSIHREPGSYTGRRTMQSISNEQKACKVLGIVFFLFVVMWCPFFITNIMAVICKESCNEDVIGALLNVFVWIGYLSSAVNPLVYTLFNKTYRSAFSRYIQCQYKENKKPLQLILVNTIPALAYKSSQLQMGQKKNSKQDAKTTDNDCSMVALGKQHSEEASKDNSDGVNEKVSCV
DA D2 receptors, sequence (P14416 whole entry): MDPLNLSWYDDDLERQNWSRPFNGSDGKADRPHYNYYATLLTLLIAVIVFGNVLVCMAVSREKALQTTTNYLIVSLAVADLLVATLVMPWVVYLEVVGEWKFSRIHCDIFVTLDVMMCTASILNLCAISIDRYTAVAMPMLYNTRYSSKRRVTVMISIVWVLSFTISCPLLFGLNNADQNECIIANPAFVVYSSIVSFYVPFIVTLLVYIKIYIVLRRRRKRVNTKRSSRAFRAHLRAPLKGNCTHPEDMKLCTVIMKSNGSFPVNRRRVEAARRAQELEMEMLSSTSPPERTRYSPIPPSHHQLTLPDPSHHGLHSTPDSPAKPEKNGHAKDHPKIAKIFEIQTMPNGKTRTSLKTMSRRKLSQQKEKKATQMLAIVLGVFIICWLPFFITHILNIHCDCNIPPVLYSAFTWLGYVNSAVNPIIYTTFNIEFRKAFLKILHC
dopamine D2 receptors, sequence (P14416 whole entry): as above
CYP2D6, sequence (P10635 whole entry): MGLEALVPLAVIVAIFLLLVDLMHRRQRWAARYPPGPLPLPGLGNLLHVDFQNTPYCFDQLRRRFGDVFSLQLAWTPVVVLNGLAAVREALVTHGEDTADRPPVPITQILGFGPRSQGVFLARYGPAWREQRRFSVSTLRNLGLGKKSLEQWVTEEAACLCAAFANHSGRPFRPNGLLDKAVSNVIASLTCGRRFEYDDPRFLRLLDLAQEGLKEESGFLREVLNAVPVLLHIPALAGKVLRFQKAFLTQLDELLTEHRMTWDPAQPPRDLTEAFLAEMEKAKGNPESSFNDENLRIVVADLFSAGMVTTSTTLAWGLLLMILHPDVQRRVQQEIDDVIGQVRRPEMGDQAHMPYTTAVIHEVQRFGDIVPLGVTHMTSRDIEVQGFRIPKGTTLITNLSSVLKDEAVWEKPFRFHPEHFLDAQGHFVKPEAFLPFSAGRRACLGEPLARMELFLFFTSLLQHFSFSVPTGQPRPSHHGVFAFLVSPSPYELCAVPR
dopamine (DA) D1 receptors, sequence (P21728 whole entry): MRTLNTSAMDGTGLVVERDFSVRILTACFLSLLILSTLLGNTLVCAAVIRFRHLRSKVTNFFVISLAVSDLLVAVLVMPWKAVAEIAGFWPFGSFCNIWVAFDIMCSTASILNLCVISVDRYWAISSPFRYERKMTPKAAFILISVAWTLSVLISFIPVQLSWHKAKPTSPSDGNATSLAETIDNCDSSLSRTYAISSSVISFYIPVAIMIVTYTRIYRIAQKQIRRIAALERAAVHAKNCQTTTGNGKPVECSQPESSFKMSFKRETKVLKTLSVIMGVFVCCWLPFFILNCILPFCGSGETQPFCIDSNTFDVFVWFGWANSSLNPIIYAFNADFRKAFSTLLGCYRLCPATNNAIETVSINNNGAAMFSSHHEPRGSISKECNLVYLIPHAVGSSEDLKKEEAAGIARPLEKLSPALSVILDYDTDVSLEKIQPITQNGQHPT
dopamine D1 receptors, sequence (P21728 whole entry): as above

## CC1(C)CN([C@@H]2C[C@@H](c3ccccc3)c3ccc(Cl)cc32)CCN1.CC1(C)CN([C@@H]2C[C@@H](c3ccccc3)c3ccc(Cl)cc32)CCN1.O=C(O)C[C@H](O)C(=O)O (relative stereo) [malate salt, trans-1-((1R,3S)-6-chloro-3-phenylindan-1-yl)-3,3-dimethylpiperazinium L-malate]
Solubility of the salts
  solubility: 800 µg/mL

## CC1(C)CN([C@@H]2C[C@@H](c3ccccc3)c3ccc(Cl)cc32)CCN1 [Compound I, trans-1-((1R,3S)-6-chloro-3-phenylindan-1-yl)-3,3-dimethylpiperazine]
[1]
  induction of dystonia (EPS liability): did not induce dystonia
[2]
  affinity for dopamine (DA) D1 receptors: high affinity
DA D2 receptors
  affinity for DA D2 receptors: high affinity
Alfal adrenoceptors
  affinity for alfal adrenoceptors: high affinity
Dopamine D1 receptors
  functional activity at dopamine D1 receptors: antagonist
Dopamine D2 receptors
  functional activity at dopamine D2 receptors: antagonist
[3]
  functional activity at serotonin 5-HT2a receptors: antagonist
CYP2D6
  inhibition of CYP2D6: relatively weak inhibitor
[4]
  effect on the QT interval: relatively low effect
